Data taken from PMC8507746, “The FHP01 DDX3X Helicase Inhibitor Exerts Potent Anti-Tumor Activity In Vivo in Breast Cancer Pre-Clinical Models” (Cancers, 2021).

Tests used:
[1] = tested on: phospho-β-catenin; experiment: Western blot of phospho-β-catenin in MDA MB 231 cells; assay type: cell-based, human; details: MDA MB 231, 1 μM, 16 hrs; vehicle = 1.00
Procedure: Cells (1 × 10^5) were seeded in 6-well plates. After 24 h, cells were treated for indicated times with DMSO (vehicle) or FHP01 or XAV939 (Merck). After treatments, cells were washed with cold PBS and total protein extracts obtained by adding 80 µL of “RIPA Lysis buffer” (50 mM Tris-HCl pH 8.0, 150 mM NaCl, 0.5% Sodium deoxycholate, 0.1% SDS, 1% NP-40, 2 mM Orthovanadate, 2mM Sodium fluoride, 1mM Dithiothreitol and 1× protease inhibitors). After mechanicals detachment with cell scrapers, total lysates were collected in tubes, vortexed, and incubated for 15 min on ice. Tumors from mice were collected and disrupted by bead homogenization in Lysing Matrix D tubes using a FastPrep-24 5G homogenizer (MP Biomedicals, Solon, OH, USA) filled with “RIPA Lysis buffer” w:v. Next, samples were centrifuged for 10 min at 16,000× g, and supernatants were collected, representing total cell lysates.
Densitometric analysis of western blots was performed with NIH Image J (National Institutes of Health).

[2] = tested on: WNT signaling (TCF/LEF transcriptional activity); experiment: TCF/LEF luciferase reporter assay (WNT1/WNT3A) in MDA MB 231 cells; assay type: cell-based, human; details: MDA MB 231, WNT1/WNT3A, 1 μM, 16 hrs
Procedure: MDA MB 231 cells were seeded at 3 × 10^4 cells/well density in 12-well plates, in triplicate, and transfected with 250 ng of the M50 Super 8× TOPFlash reporter vector (Addgene Plasmid #12456) and 1 μg of expression vectors inducing the WNT pathway (Wnt1-V5, Addgene plasmid #43807, and Wnt3A-V5, Addgene plasmid #43810). Eight hours after transfection, cells were treated with FHP01, XAV939 (Merck, Kenilworth, NJ, USA) or DMSO for indicated times prior to lysis in Passive Lysis Buffer (Promega, Madison, WI, USA). Luciferase activity in cellular lysates was assessed on a Glomax 20/20 luminometer (Promega) using the Luciferase Assay System (Promega). Results were normalized for GFP expression, upon transfection with GFP coding vector (1 μg). Representative results from 3 independent experiments are shown (n = 3). Error bars represent the Standard Error of the Mean. All samples were read at least in triplicate.

In the case of `Oc1nc(-c2ccc(C(F)(F)F)cc2)nc2c1CSCC2` [XAV939, reference compound], the “Phospho-β-catenin : ERK2” value [1] was 2.64 and the TCF/LEF-dependent transcription [2] was “efficient attenuation”.
